Source: patent US4716222A, “Substrates for hydrolases” (Hoechst Aktiengesellschaft, priority 1984, dated 1987)
Like-named read-outs stand apart in the source and are kept apart here. One block for each compound: values may come before it.

How the values were obtained:
α-amylase = test: Determination of α-amylase activity in a urine sample without auxiliary enzyme α-glucosidase; format: biochemical; details: for delta A/min / absorbance change, fold greater than with the nitrophenyl derivative: urine sample; for delta A/min: without auxiliary enzyme α-glucosidase
Protocol: For determination of α-amylase, the measured extinction changes were compared for the following new substrates: 2H-7-O-(α-D-maltotriosyl)-4-methyl-8-nitrobenzopyran-2-one (compound S10), the corresponding maltotetraosyl compound (compound S11) as well as o-nitrophenyl α-maltotrioside.
585 mg of NaCl and 200 mg of compound S10 were dissolved in 100 ml of M/15 phosphate buffer, pH 6.0. 20 μl of urine were pipetted into 1 ml of this solution which was thoroughly mixed. The change in absorbance at 365 nm was continuously recorded in a photometer with a pen recorder attached. The change in absorbance per miute (delta A/min) was calculated from the recording on the pen recorder, and the enzyme activity (U/L) was calculated using the following formula: [formula] 1.02=assay volume including the sample, in ml 0.02=sample volume in ml

[1] = Extinction coefficients and absorption maxima of dyes at different pH values; format: physicochemical
IgE = test: Determination of IgE with a state of the art enzyme immunoassay; details: same incubation periods; for absorbance change: measuring wavelength 405 nm, same sample
Protocol: A substantial increase in sensitivity could be achieved using the new substrates in an enzyme immunoassay of the state of the art. In this assay the IgE concentration is determined, as a measure of an allergy by means of the indirect antibody technique. With the same incubation periods for the different substrates, an approximately 4.3-fold higher absorbance for resorufin-β-galactoside (compound S6) and an approximately 1.7-fold higher absorbance for 3-hydroxy-2-nitropyridine-β-galacto-side was measured than for the commercially available o-nitrophenyl-β-galactoside.

pKa of the dyes A-OH = format: physicochemical
Source text: The compounds of the formula A--O--B can be used as substrates for the detection and the determination of hydrolases. The dye A--OH, which is liberated on cleavage, has appreciable advantages over those of the state of the art. […] This means that even in the pH range below 7 there is compared with p-nitrophenol, a considerably higher extinction at the same molarity, so that the new substrates prepared from these dyes can therefore be measured with considerably greater sensitivity.

β-glucosidase = test: Determination of β-glucosidase activity in a urine sample; format: biochemical, human; details: for Absorbance Difference/min delta A/min: T = 25° C.
Source text: The determination of β-glucosidase activity in human urine has hitherto not been possible with the usual assays because of their limited sensitivity.

acid phosphatase = molecular target: T1, acid phosphatase (Homo sapiens, UniProt P15309); test: Kinetic determination of acid phosphatase in seminal plasma; format: biochemical
T1 construct: from tissue; host or cells: seminal plasma, diluted 1:101
T1 sequence (P15309 33-386): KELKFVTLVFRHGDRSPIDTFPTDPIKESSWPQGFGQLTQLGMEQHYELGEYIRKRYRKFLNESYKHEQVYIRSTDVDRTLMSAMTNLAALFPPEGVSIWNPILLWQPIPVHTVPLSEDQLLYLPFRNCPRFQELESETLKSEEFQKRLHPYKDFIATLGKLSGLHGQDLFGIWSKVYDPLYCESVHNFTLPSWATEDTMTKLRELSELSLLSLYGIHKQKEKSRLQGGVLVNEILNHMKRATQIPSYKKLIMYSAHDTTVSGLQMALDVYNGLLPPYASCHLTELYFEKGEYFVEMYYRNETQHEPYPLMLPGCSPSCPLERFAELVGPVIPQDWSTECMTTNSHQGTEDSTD
Protocol: The activity of acid phosphatase could be kinetically determined substantially more sensitively with 2H-7-O-4-methyl-8-nitrobenzopyran-2-one phosphate (compound S13) than with nitrophenyl phosphate. The determination was carried out in seminal plasma, diluted 1:101 using both substrates. 0.01 ml of diluted sample was added to 1 ml of a buffered substrate solution, pH 4.8 and the extinction changes kinetically recorded at 405 or 365 nm.

Compound: O=[N+]([O-])c1ccccc1O[C@H]1O[C@H](CO)[C@@H](O[C@H]2O[C@H](CO)[C@@H](O[C@H]3O[C@H](CO)[C@@H](O)[C@H](O)[C@H]3O)[C@H](O)[C@H]2O)[C@H](O)[C@H]1O [nitrophenyl derivative, o-nitrophenyl α-maltotrioside]
- delta A/min (α-amylase): 0,020 A/min

Compound: O=[N+]([O-])c1ncccc1O[C@H]1O[C@H](CO)[C@@H](O[C@H]2O[C@H](CO)[C@@H](O[C@H]3O[C@H](CO)[C@@H](O)[C@H](O)[C@H]3O)[C@H](O)[C@H]2O)[C@H](O)[C@H]1O [compound S12, 3-O-(α-D-Maltotriosyl)-2-nitropyridine]
- absorbance changes in comparison with the state of the art (α-amylase; without auxiliary enzyme, immediately linear kinetics): sufficiently high absorbance changes

Compound: O=[N+]([O-])c1ncccc1O[C@@H]1O[C@H](CO)[C@H](O)[C@H](O)[C@H]1O [compound S7, 3-O-(β-D-Galactopyranosyl)-2-nitropyridine]
- absorbance change (IgE): 0.298
- fold higher absorbance than o-nitrophenyl-β-galactoside (IgE): approximately 1.7 fold

Compound: Cc1cc(=O)oc2c([N+](=O)[O-])c(O[C@H]3O[C@H](CO)[C@@H](O[C@H]4O[C@H](CO)[C@@H](O[C@H]5O[C@H](CO)[C@@H](O)[C@H](O)[C@H]5O)[C@H](O)[C@H]4O)[C@H](O)[C@H]3O)ccc12 [compound S10, 2H-7-O-(α-D-Maltotriosyl)-4-methyl-8-nitrobenzopyran-2-one]
- absorbance change, fold greater than with the nitrophenyl derivative (α-amylase): 32 fold
- delta A/min (α-amylase): 0,635 A/min

Compound: O=[N+]([O-])c1ccc(O)cc1 [p-Nitrophenol]
- Extinction coefficient ([1]; pH 4.0, 405 nm): 0.20 1·mol^-1·cm^-1·10^3
- Extinction coefficient ([1]; pH 5.0, 405 nm): 0.40 1·mol^-1·cm^-1·10^3
- Extinction coefficient ([1]; pH 6.0, 405 nm): 1.50 1·mol^-1·cm^-1·10^3
- Extinction coefficient ([1]; pH 7.1, 405 nm): 9.7 1·mol^-1·cm^-1·10^3
- Extinction coefficient ([1]; pH 10, 405 nm): 18.30 1·mol^-1·cm^-1·10^3

Compound: Cc1cc(=O)oc2c([N+](=O)[O-])c(OP(=O)(O)O)ccc12 [compound S13, 2H-7-O-(Phosphoryl)-4-methyl-8-nitrobenzopyran-2-one]
- absorbance change, fold greater than for nitrophenyl phosphate (acid phosphatase): about 13 fold
- Ratio of the absorbance changes (acid phosphatase; relative to p-nitrophenyl phosphate): 13
- delta A/min (acid phosphatase; seminal plasma diluted 1:101, pH 4.8, 405 or 365 nm): 0,0975 A/min

Compound: Cc1cc(=O)oc2c([N+](=O)[O-])c(O[C@H]3O[C@H](CO)[C@@H](O[C@H]4O[C@H](CO)[C@@H](O[C@H]5O[C@H](CO)[C@@H](O[C@H]6O[C@H](CO)[C@@H](O)[C@H](O)[C@H]6O)[C@H](O)[C@H]5O)[C@H](O)[C@H]4O)[C@H](O)[C@H]3O)ccc12 [compound S11, 2H-7-O-(α-D-Maltotetraosyl)-4-methyl-8-nitrobenzopyran-2-one]
- absorbance change, fold greater than with the nitrophenyl derivative (α-amylase): approximately 14 fold
- delta A/min (α-amylase): 0,134 A/min

Compound: O=[N+]([O-])c1ccccc1O [o-Nitrophenol]
- Extinction coefficient ([1]; pH 4.0, 405 nm): 0.47 1·mol^-1·cm^-1·10^3
- Extinction coefficient ([1]; pH 5.0, 405 nm): 0.48 1·mol^-1·cm^-1·10^3
- Extinction coefficient ([1]; pH 6.0, 405 nm): 0.75 1·mol^-1·cm^-1·10^3
- Extinction coefficient ([1]; pH 7.1, 405 nm): 2.34 1·mol^-1·cm^-1·10^3
- Extinction coefficient ([1]; pH 10, 405 nm): 4.01 1·mol^-1·cm^-1·10^3
- pKa (pKa of the dyes A-OH): 7.08

Results, then the compound that gave them:

- absorption maximum ([1]; pH<6): 390 nm
- absorption maximum ([1]; pH>8): 450 nm
Compound: O=c1oc2cc(O)ccc2cc1[N+](=O)[O-] [7-hydroxy-3-nitrocoumarin]

- Extinction coefficient ([1]; pH 4.0, 405 nm): 4.93 1·mol^-1·cm^-1·10^3
- Extinction coefficient ([1]; pH 5.0, 405 nm): 5.34 1·mol^-1·cm^-1·10^3
- Extinction coefficient ([1]; pH 6.0, 405 nm): 5.40 1·mol^-1·cm^-1·10^3
- Extinction coefficient ([1]; pH 7.1, 405 nm): 5.48 1·mol^-1·cm^-1·10^3
- Extinction coefficient ([1]; pH 10, 405 nm): 5.4 1·mol^-1·cm^-1·10^3
- pKa (pKa of the dyes A-OH): 3.1
Compound: O=[N+]([O-])c1ccnc(Cl)c1O [3-Hydroxy-4-nitro-2-chloropyridine]

- Extinction coefficient ([1]; pH 4.0, 405 nm): 0.50 1·mol^-1·cm^-1·10^3
- Extinction coefficient ([1]; pH 5.0, 405 nm): 2.32 1·mol^-1·cm^-1·10^3
- Extinction coefficient ([1]; pH 6.0, 405 nm): 5.09 1·mol^-1·cm^-1·10^3
- Extinction coefficient ([1]; pH 7.1, 405 nm): 5.80 1·mol^-1·cm^-1·10^3
- Extinction coefficient ([1]; pH 10, 405 nm): 5.90 1·mol^-1·cm^-1·10^3
- pKa (pKa of the dyes A-OH): 5.1
Compound: O=[N+]([O-])c1ncccc1O [3-Hydroxy-2-nitropyridine]

- Extinction coefficient ([1]; pH 4.0, 574 nm, mercury lamp photometer, calculated): 1.00 1·mol^-1·cm^-1·10^3
- Extinction coefficient ([1]; pH 4.0, 578 nm, variable wavelength photometer): 0.75 1·mol^-1·cm^-1·10^3
- Extinction coefficient ([1]; pH 5.0, 574 nm, mercury lamp photometer, calculated): 7.4 1·mol^-1·cm^-1·10^3
- Extinction coefficient ([1]; pH 5.0, 578 nm, variable wavelength photometer): 5.7 1·mol^-1·cm^-1·10^3
- Extinction coefficient ([1]; pH 6.0, 574 nm, mercury lamp photometer, calculated): 29.64 1·mol^-1·cm^-1·10^3
- Extinction coefficient ([1]; pH 6.0, 578 nm, variable wavelength photometer): 22.80 1·mol^-1·cm^-1·10^3
- Extinction coefficient ([1]; pH 7.1, 574 nm, mercury lamp photometer): 49.87 1·mol^-1·cm^-1·10^3
- Extinction coefficient ([1]; pH 7.1, 578 nm, variable wavelength photometer): 39.6 1·mol^-1·cm^-1·10^3
- Extinction coefficient ([1]; pH 10, 574 nm, mercury lamp photometer): 55.42 1·mol^-1·cm^-1·10^3
- Extinction coefficient ([1]; pH 10, 578 nm, variable wavelength photometer): 41.000 1·mol^-1·cm^-1·10^3
Compound: O=c1ccc2nc3ccc(O)cc3oc-2c1 [Resorufin, 3H-7-hydroxyphenoxazin-3-one]

- absorption maximum [1]: 578 nm
- molar extinction coefficient ([1]; 578 nm and pH 7.1): 64,420 1.mol^-1.cm^-1
- pKa (pKa of the dyes A-OH): 5.55
Compound: N#Cc1c2ccc(=O)cc-2oc2cc(O)ccc12 [compound C1, 3H-7-Hydroxy-9-cyanoxanthen-3-one]

- Extinction coefficient ([1]; pH 4.0, 365 nm): 7.84 1·mol^-1·cm^-1·10^3
- Extinction coefficient ([1]; pH 5.0, 365 nm): 11.87 1·mol^-1·cm^-1·10^3
- Extinction coefficient ([1]; pH 6.0, 365 nm): 12.9 1·mol^-1·cm^-1·10^3
- Extinction coefficient ([1]; pH 7.1, 365 nm): 13.2 1·mol^-1·cm^-1·10^3
- Extinction coefficient ([1]; pH 10, 365 nm): 13.2 1·mol^-1·cm^-1·10^3
- pKa (pKa of the dyes A-OH): 3.9
Compound: O=[N+]([O-])c1nc(Cl)ccc1O [3-Hydroxy-2-nitro-6-chloropyridine]

- fold larger absorbance change per minute than with p-nitrophenyl β-D-glucopyranoside (β-glucosidase): approximately 7 fold
- Absorbance Difference/min delta A/min (β-glucosidase): 0,332 A/min
Compound: O=[N+]([O-])c1ncccc1O[C@@H]1O[C@H](CO)[C@@H](O)[C@H](O)[C@H]1O [compound S5, 3-O-(β-D-Glucopyranosyl)-2-nitropyridine]

- pKa (pKa of the dyes A-OH): 4.45
Compound: Cc1cc(=O)oc2c([N+](=O)[O-])c(O)ccc12 [4-Methyl-8-nitrobenzopyran-2-one, 2H-7-hydroxy-4-methyl-8-nitrobenzopyran-2-one]

- Absorbance Difference/min delta A/min (β-glucosidase): 0,0476 A/min
Compound: O=[N+]([O-])c1ccc(O[C@@H]2O[C@H](CO)[C@@H](O)[C@H](O)[C@H]2O)cc1 [p-nitrophenyl derivative, p-nitrophenyl β-D-glucopyranoside]

- absorbance change (IgE): 0.176
Compound: O=[N+]([O-])c1ccccc1O[C@@H]1O[C@H](CO)[C@H](O)[C@H](O)[C@H]1O [o-Nitrophenyl galactoside, o-nitrophenyl-β-galactoside]
